# Results from patent publication US10495630B2, “Methods for the determination of compounds or compositions for the treatment of lipofuscin related diseases and compounds or compositions” (KATAIRO GMBH, priority 2014, dated 2019).
# Like-named read-outs stand apart in the source and are kept apart here.
# How the values were obtained:
# [1] = tested on: Abca4 (−/−) mice; assay: A2E concentration in eyes of Abca4 (−/−) mice after intravitreal injection, HPLCMSMS; type: in vivo; conditions: for response vs control in vivo at 20000 µg/mL / response vs control in vivo at 40000 µg/mL: Mus musculus, 168 h, read-out: % of A2E relative to age matched untreated
# From the text: […] […] The left eye was not treated and maintained as a control. Untreated eyes of age-matched mice lacking the Abca4 transporter were an additional control.
# The concentration in each treated eye was then expressed as a percentage of the average concentration in all untreated eyes in the mice of the same age.
# The left eye was not treated and maintained as a control. Untreated eyes of age-matched mice lacking the Abca4 transporter were an additional control.
# The left eye was not treated and maintained as a control. Untreated eyes of age-matched mice lacking the Abca4 transporter were an additional control. […] Tryptophan is capable of absorbing and re-radiating light energy, as is riboflavin.
# Water solutions were diluted 1:3 with acetonitrile and then sealed in vials for injection. 6 μL of the water acetonitrile solutions were injected onto a 2×50 mm Phenyl derived HPLC column (3 μm) and eluted with a gradient from 20% acetonitrile to 100% acetonitrile over 4 minutes at a flow rate of 500 μL/minute.
# [2] = tested on: human retinal pigment epithelium (RPE) cells; assay: Degradation of lipofuscin in human RPE cells (micrographs after one week); type: cell-based; conditions: one week incubation
# Method: To explore the role of the reactive chemical species the human retinal pigment epithelium (RPE) cells were treated with the super oxide anion donor (SAD) soraprazan ((7R,8R,9R)-2,3-Dimethyl-8-hydroxy-7-ethoxy-9-phenyl-7,8,9,10-tetrahydro-imidazo-[1,2-h][1,7]-naphthyridin)—a member of the THPE family—either alone or in combination with a known radical oxygen scavenger, cardioxane.
# After growing the hRPE-cells to confluence, the test compounds were added to seven cell cultures and the cells were incubated at 37° C. and 5% CO2. The SAD was added to the cell cultures in a concentration of 50 μg/ml either alone or in combination with cardioxane in a concentration of 10 μM, 50 μM or 100 μM. Additionally, three cell cultures were incubated only with cardioxane in a concentration of 10 μM, 50 μM or 100 μM. As control, one cell culture was grown without test compounds.
# After one week of incubation micrographs of the differently incubated RPE cells were taken as shown in FIG. 2A to H. In the original images, lipofuscin in cells is visible as a yellow-gold-orange fluorescent structure, before a blue background. In the grey scale reproduction in FIG. 2 the yellow-gold-orange structure appear light grey (yellow) or dark grey (gold-orange) before a grey background. Areas of degradation of lipofuscin in the hRPE cells appears as bright blue to whitish structures which appear white in the in the grey scale reproduction and are circled in FIG. 2A.
# The bright blue structures are only observed in the experimental set up with SAD alone (FIG. 2A).
# [3] = tested on: melanin A2E particles; assay: Assay for binding to A2E melanin particles; set-up: species or system S. officinalis; conditions: FIG. 3A; 37° C., 4 h
# Method: To study the binding of A2E to melanin, a suspension of 2 mg/ml natural melanin (S. officinalis) is prepared in PBS, pH 7.4. The melanin suspension is brought to 37° C. and sonicated for 15 min to form a uniform suspension. The melanin suspension (0.75 ml) is measured in aliquots into glass test tubes (12×75 mm) under continuous shaking to avoid sedimentation. The solution of A2E (0.75 ml) is added to the above-mentioned melanin aliquots, and the tubes will be incubated in a shaker incubator at 37° C. and 300 rpm for 4 h.
# Controls are prepared by incubating A2E in the absence of melanin in incubation medium and by incubating melanin without A2E. Compounds are added to melanin suspension from stock solutions. After incubation, the suspensions are centrifuged at 13,000 rpm for 15 min at room temperature to remove the melanin granules. The supernatant is collected, diluted with acetonitrile and analyzed by an LC-MS/MS method to determine the concentration of […] in the supernatant. The kinetic parameters of binding study, i.e., maximal binding capacity (rmax) and the binding affinity (k) are determined for A2E according to the previously reported method (Cheruvu et al., 2008).
# A high percentage of soraprazan and demethoxysoraprazan—about 46% and about 53%, respectively—are found bound to the melanin A2E particles.
# [4] = redox active and chelating protein, intravitreal 2 μl of 20 mg/ml, one week after injection
# [5] = quinolones, intravitreal 2 μl of 20 mg/ml, one week after injection
# [6] = dyes and porphyrins, intravitreal 2 μl of 20 mg/ml, one week after injection
# [7] = chelators or metal interactors, intravitreal 2 μl of 40 mg/ml or concentration as indicated, one week after injection
# [8] = amino acids or metabolites, intravitreal 2 μl of 40 mg/ml, one week after injection
# [9] = redox active small molecules and chelator, intravitreal 2 μl of 20 mg/ml, 16 hours after injection
# [10] = tetracycline antibiotics, intravitreal 2 μl of 20 mg/ml, one week after injection
# [11] = permeability agents, intravitreal 2 μl of 40 mg/ml or concentration as indicated in the table, one week after injection
molecule,measurement,setting,value
Transferrin (apo): protein capable of binding iron with high affinity,% of A2E relative to age matched untreated,[1]; [4],82%
same,Concentration A2E (μM) in the treated eye,[1]; [4],15 µM
CCn1cc(C(=O)O)c(=O)c2cc(F)c(N3CCNCC3)cc21 [Norfloxacin],response vs control in vivo at 20000 µg/mL,[1]; [5],106%
same,Concentration A2E (μM) in the treated eye,[1]; [5],36 µM
c1ccc2c(c1)Nc1ccccc1S2 [Phenothiazine],response vs control in vivo at 20000 µg/mL,[1],85%
same,Concentration A2E (μM) in the treated eye,[1]; [6],27 µM
C=C[C@H]1C[N@@]2CC[C@H]1C[C@H]2[C@H](O)c1ccnc2ccc(OC)cc12 [Quinine],response vs control in vivo at 20000 µg/mL,[1]; [6],81%
same,Concentration A2E (μM) in the treated eye,[1]; [6],17 µM
CC1(C)C(/C=C/C=C/C=C/C=C2\N(CCCCS(=O)(=O)O)c3ccc4ccccc4c3C2(C)C)=[N+](CCCCS(=O)(=O)[O-])c2ccc3ccccc3c21 [Indocyanine green],response vs control in vivo at 20000 µg/mL,[1]; [6],66%
same,Concentration A2E (μM) in the treated eye,[1]; [6],20 µM
O=C([O-])c1c(Cl)c(Cl)c(Cl)c(Cl)c1-c1c2cc(I)c(=O)c(I)c-2oc2c(I)c([O-])c(I)cc12.[Na+].[Na+] [Rose bengal],% of A2E relative to age matched untreated,[1]; [6],85%
same,Concentration A2E (μM) in the treated eye,[1]; [6],16 µM
"c1cnc2c(c1)ccc1cccnc12 [1,10-phenanthroline]",response vs control in vivo at 40000 µg/mL,[1]; [7],91%
same,Concentration A2E (μM) in the treated eye,[1]; [7],20 µM
N[C@@H](CCC(=O)N[C@@H](CS)C(=O)NCC(=O)O)C(=O)O [Glutathione],response vs control in vivo at 40000 µg/mL,[1]; [8],89%
same,Concentration A2E (μM) in the treated eye,[1]; [8],35 µM
C[C@@H]1CC[C@H]2[C@@H](C)C(=O)O[C@@H]3O[C@@]4(C)CC[C@@H]1[C@]32OO4 [Artemesinin],% of A2E relative to age matched untreated,[1]; [9],75%
same,Concentration A2E (μM) in the treated eye,[1]; [9],38 µM
O=C(N[C@H](CO)[C@H](O)c1ccc([N+](=O)[O-])cc1)C(Cl)Cl [Chloramphenicol],response vs control in vivo at 20000 µg/mL,[1]; [10],70%
same,Concentration A2E (μM) in the treated eye,[1]; [10],24 µM
O=C1/C(=C2\Nc3ccc(S(=O)(=O)[O-])cc3C2=O)Nc2ccc(S(=O)(=O)[O-])cc21.[Na+].[Na+] [Indigocarmine],% of A2E relative to age matched untreated,[1]; [6],98%
same,Concentration A2E (μM) in the treated eye,[1]; [6],22 µM
C[C@@H]1CN(c2c(F)c(N)c3c(=O)c(C(=O)O)cn(C4CC4)c3c2F)C[C@H](C)N1 [Sparfloxacin],response vs control in vivo at 20000 µg/mL,[1]; [5],99%
same,Concentration A2E (μM) in the treated eye,[1]; [5],36 µM
N[C@@H](Cc1c[nH]c2ccccc12)C(=O)O [Tryptophan],response vs control in vivo at 40000 µg/mL,[1]; [8],66%
same,Concentration A2E (μM) in the treated eye,[1]; [8],13 µM
Cytochrome C: redox active electron carrier protein used as a model peroxidase,% of A2E relative to age matched untreated,[1]; [4],81%
same,Concentration A2E (μM) in the treated eye,[1]; [4],18 µM
CN1CCN(c2c(F)cc3c(=O)c(C(=O)O)cn(CCF)c3c2F)CC1 [Fleroxacin],response vs control in vivo at 20000 µg/mL,[1]; [5],74%
same,Concentration A2E (μM) in the treated eye,[1]; [5],24 µM
Cc1cc2nc3c(=O)[nH]c(=O)nc-3n(C[C@H](O)[C@H](O)[C@H](O)COP(=O)(O)OP(=O)(O)OC[C@H]3O[C@@H](n4cnc5c(N)ncnc54)[C@H](O)[C@@H]3O)c2cc1C [FAD],% of A2E relative to age matched untreated,[1]; [6],99%
same,Concentration A2E (μM) in the treated eye,[1]; [6],23 µM
Cyclodextrin,% of A2E relative to age matched untreated,[1]; [11],83%
same,Concentration A2E (μM) in the treated eye,[1]; [11],20 µM
O=C1OC2(c3ccc(O)cc3Oc3cc(O)ccc32)c2ccccc21 [Fluoroscein],response vs control in vivo at 20000 µg/mL,[1]; [6],85%
same,Concentration A2E (μM) in the treated eye,[1]; [6],20 µM
CN(C)c1ccc(O)c2c1C[C@H]1C[C@H]3[C@H](N(C)C)C(O)=C(C(N)=O)C(=O)[C@@]3(O)C(O)=C1C2=O [Minocycline],response vs control in vivo at 20000 µg/mL,[1]; [10],100%
same,Concentration A2E (μM) in the treated eye,[1]; [10],33 µM
C[C@H]1c2cccc(O)c2C(=O)C2=C(O)[C@]3(O)C(=O)C(C(N)=O)=C(O)[C@@H](N(C)C)[C@@H]3[C@@H](O)[C@@H]21 [Doxycycline],response vs control in vivo at 20000 µg/mL,[1]; [10],81%
same,Concentration A2E (μM) in the treated eye,[1]; [10],28 µM
c1ccc2c(c1)-c1nc-2nc2[nH]c(nc3nc(nc4[nH]c(n1)c1ccccc41)-c1ccccc1-3)c1ccccc21 [Phthalocyanine],% of A2E relative to age matched untreated,[1]; [6],142%
same,Concentration A2E (μM) in the treated eye,[1]; [6],31 µM
C[C@@H](CN1CC(=O)NC(=O)C1)N1CC(=O)NC(=O)C1 [cardioxane],Effect on the lipofuscin degradation seen with SAD,"[2]; cardioxane 10, 50 or 100 μM added to SAD 50 μg/ml",abolishes the degradation of lipofuscin
same,Degradation / removal of lipofuscin in hRPE cells,"[2]; test compound alone (SAD 50 μg/ml; cardioxane 10, 50 or 100 μM)",do not show any degradation of lipofuscin
CN(C)c1ccc(C(=C2C=CC(=[N+](C)C)C=C2)c2ccc(N(C)C)cc2)cc1 [Crystal violet],response vs control in vivo at 20000 µg/mL,[1]; [6],71%
same,Concentration A2E (μM) in the treated eye,[1]; [6],23 µM
R/S-demethoxysoraprazan,Proportion of compound bound to the melanin A2E particles after incubation,[3],bind to the A2E melanin particles although to a lower percentage
Cc1cc2nc3c(=O)[nH]c(=O)nc-3n(C[C@H](O)[C@H](O)[C@H](O)CO)c2cc1C [Riboflavin],response vs control in vivo at 40000 µg/mL,[1]; [8],91%
same,Concentration A2E (μM) in the treated eye,[1]; [8],19 µM
demethoxysoraprazan,Proportion of compound bound to the melanin A2E particles after incubation,[3],about 53%
N[C@@H](CS)C(=O)O [Cysteine],response vs control in vivo at 40000 µg/mL,[1]; [8],59%
same,Concentration A2E (μM) in the treated eye,[1]; [8],12 µM
same,% of A2E relative to age matched untreated,[1]; [7],59%
same,Concentration A2E (μM) in the treated eye,[1]; [7],12 µM
